This is an account of results in patent publication US5296485A, “Substituted N-phenylpiperidines and drugs therefrom” (BASF Aktiengesellschaft, priority 1991, dated 1994).

SMILES strings stand for the structures. Read-outs that look alike come from different tables or passages of the source.

One may read the Ki as the equilibrium dissociation constant of an inhibitor or competing ligand from its target.

One data set has as its system sigma binding sites. Conditions: J. Pharmacol. Exp. Ther. 238 (1986) 739; cited from earlier work.
A further data set has as its system guinea-pig hearts. The experiment in a line: ECG measurement of QT prolongation on isolated perfused (Langendorff) guinea-pig hearts. On the set-up: species or system guinea-pig (male Duncin-Hartley). Conditions: Cavia porcellus, 0.25 h; isolated guinea-pig heart, Krebs-Henseleit perfusate, 37° C., cumulative addition at 15 min intervals; linear regression on log dose; read-out: ED20% (dose at which the QT interval is increased by 20% from the initial level). An excerpt: In this connection, the cardiac cycle is divided into systole (contraction of the heart), also called QT interval, and diastole (relaxation of the heart with filling of the ventricles with blood). Repolarization inhibitors increase the QT interval but have a negligible effect on the atrioventricular conduction time (PQ interval) and the period of isometric contraction (QRS time, from start of systole to opening of the semilunar valves) (see Pschyrembel, 254th Edition, 1982).
The activity of the compounds according to the invention as repolarization inhibitors can be investigated in animal experiments by ECG measurements on, for example, guinea-pig hearts (see Basic Res. Cardiol. 82 (1987) 437; J. Pharmacol. Methods 21 (1989) 195). Comparison of the activities of various substances is based, for example, on the dose of an active substance at which the QT interval is increased by 20% from the initial level (ED20%). To do this, the logarithms of the doses of the substances are plotted against the experimentally found relative changes in the QT interval, and linear regression is used to determine the equation of a straight line from which the ED20% can then be calculated.
This method was used to determine the ED20% values of compounds according to the invention (see Table 1) . The comparison substance was D-sotalol [4'-(1-hydroxy-2-(isopropylamino)ethyl)methanesulfonanilide].
The experimental animals were male Duncin-Hartley guinea-pigs weighing from 300 to 350 g. 30 min after administration of 1250 I.U. of heparin/kg of body weight into the abdominal cavity, the animals were sacrificed by a blow to the back of the neck. The common carotid arteries were severed for exsanguination, then the thoracic cavity was opened and the heart was removed and connected to a perfusion apparatus. The Langendorff perfusion was carried out with oxygen-enriched Krebs-Henseleit solution (NaCl 6896 mg/l; KCl 350 mg/l; MgSO4 285 mg/l; CaCl2 370 mg/l; KH2 PO4 161 mg/l; NaHCO3 2090 mg/l; glucose 2000 mg/1) at 37° C. The perfusion volume per unit time was 4 to 6 ml/min, the total volume was 100 ml and the perfusion pressure was 60 to 70 mm Hg. Circulating perfusion was carried out after an equilibration time of 30 min.
Two silver electrodes attached to the surface of the heart in the upper region of the left coronary artery and on the rear of the heart at the level of the valve were used for the ECG recordings. The PQ and QT intervals and QRS times, and the heart rate, were measured.
The substances were added to the perfusate cumulatively at 15 min intervals.

Data set [1] concerns the target sigma receptor. Put plainly: Sigma receptor binding ([^3 H]-ditolylguanidine). Conditions: rat cerebra membranes, pH 7.7, 37° C., read-out: Activity constants Ki for the [^3 H]-ditolylguanidine binding site.
The next data set has as its system humans. Particulars: substances which bind to sigma receptors; J. Pharmacol. Exp. Ther. 197 (1976) 517; cited from earlier work.
Data set [2] relates to sigma receptor. Conditions: cited from earlier work.

`OC(CCCN1CCN(c2ncc(F)cn2)CC1)c1ccc(F)cc1` (stereo not drawn) [BMY 14802, α-(4-fluorophenyl)-4-(5-fluoro-2-pyrimidinyl)-1-piperazinebutanol]: in the data set on sigma binding sites, the “affinity for sigma binding sites” value was “high affinity”.
With `CC(C)NC[C@@H](O)c1ccc(NS(C)(=O)=O)cc1` [D-sotalol, 4'-(1-hydroxy-2-(isopropylamino)ethyl)methanesulfonanilide], the EC20 in the data set on guinea-pig hearts came to 16000 nM.
Take `CN(Cc1ccccc1)CC1CCN(c2ccc([N+](=O)[O-])cc2)CC1` [Example 2, 4-(N-Benzyl-N-methylaminomethyl)-1-(4-nitrophenyl)piperidine]: in the data set on guinea-pig hearts, the EC20 is 420 nM. The Ki on sigma receptor [1] turned out to be 11 nM.
Regarding `N#Cc1ccc(N2CCC(N3CCN(c4ccc([N+](=O)[O-])cc4)CC3)CC2)cc1` [Example 3, N-[1-(4-Cyanophenyl)-4-piperidinyl)-N'-(4-nitrophenyl)piperazine], the EC20 with guinea-pig hearts turned out to be 31 nM.
As to `O=[N+]([O-])c1ccc(N2CCC(N3CCC(c4ccccc4)CC3)CC2)cc1` [Example 8, 1-(4-Nitrophenyl)-4-(4-phenyl-1-piperidinyl)piperidine], on sigma receptor [1], the Ki came out at 2.8 nM.
Take `CN(Cc1ccc(NS(C)(=O)=O)cc1)CC1CCN(c2ccc(NS(C)(=O)=O)cc2)CC1` [Example 10, 1-(4-Methanesulfonamidophenyl)-4-[N-(4-methanesulfonamidobenzyl)-N-methylaminomethyl]piperidine]: the EC20 in the data set on guinea-pig hearts came out at 960 nM.
For the compound `CN(Cc1ccccc1)C1CCCN(c2ccc([N+](=O)[O-])cc2)C1` (stereo not shown) [Example 11, 3-(N-benzyl-N-methylamino)-1-(4-nitrophenyl)piperidine], the EC20 in the data set on guinea-pig hearts was found to be 1100 nM. Also, the Ki on sigma receptor [1] came to 2 nM.
On to `CN(CC(O)c1ccc(F)cc1)C1CCN(c2ccc([N+](=O)[O-])cc2)CC1` (stereo not shown) [Example 12, 4-[N-[2-(4-Fluorophenyl)-2-hydroxyethyl]-N-methylamino]-1-(4-nitrophenyl)piperidine], for which the EC20 in the data set on guinea-pig hearts came out at 210 nM.
In the case of `C[C@H]1[C@H]2Cc3ccc(O)cc3[C@]1(C)CCN2CC1CC1` [cyclazocine], the “psychotomimetic effects in humans” value in the data set with humans was “psychotomimetic effects”.
For the compound `O=C(CCCN1CCC(O)(c2ccc(Cl)cc2)CC1)c1ccc(F)cc1` [haloperidol], in the data set on sigma receptor [2], the “affinity of the haloperidol-sensitive sigma receptors” value is “high affinity”. Besides, the “affinity for sigma binding sites” value in the data set on sigma binding sites is recorded as “high affinity”.
As to `CNC1(c2ccccc2Cl)CCCCC1=O` (stereo not shown) [ketamine], in the data set with humans, the “psychotomimetic effects in humans” value is “psychotomimetic effects”.
Consider `CC(C)=CCN1CCC2(C)c3cc(O)ccc3CC1C2C` (stereo not shown) [pentazocine], for which the “psychotomimetic effects in humans” value with humans is given as “psychotomimetic effects”.
For the compound `c1ccc(C2(N3CCCCC3)CCCCC2)cc1` [phencyclidine], in the data set with sigma receptor [2] (statement in words on the receptor used in the assay), the “affinity of the haloperidol-sensitive sigma receptors” value was “low affinity”.
